Data taken from ChEMBL document CHEMBL1255498, “Moxifloxacin pharmacokinetics/pharmacodynamics and optimal dose and susceptibility breakpoint identification for treatment of disseminated Mycobacterium avium infection” (Antimicrob Agents Chemother, 2010).
Values after ≈ are worked out from the molar mass of the structure shown.

Tests used:
Mycobacterium avium = assay: Antimicrobial activity against Mycobacterium avium by CLSI method
[1] = Antimicrobial activity against Mycobacterium avium subsp. hominissuis ATCC 700898 infected in human THP1 cells in presence of 2% FBS; format: functional, cell-based; details: ATCC 700898, THP-1
[2] = Antimicrobial activity against Mycobacterium avium subsp. hominissuis ATCC 700898 infected in human THP1 cells in presence of 10% FBS; format: functional, cell-based; details: ATCC 700898, THP-1
[3] = Antimicrobial activity against Mycobacterium avium subsp. hominissuis ATCC 700898 infected in human THP1 cells in presence of 20% FBS; format: functional, cell-based; details: ATCC 700898, THP-1
[4] = microbe, parasite or virus in culture; details: Mycobacterium avium, ATCC 700898
[5] = microbe, parasite or virus in culture; details: Mycobacterium avium, ATCC 700898, 168 h
[6] = microbe, parasite or virus in culture; details: Mycobacterium avium, ATCC 700898, 168 h; remark: listed apart in the source

COc1c(N2C[C@@H]3CCCN[C@@H]3C2)c(F)cc2c(=O)c(C(=O)O)cn(C3CC3)c12 [MOXIFLOXACIN]
MIC (Mycobacterium avium): 1 µg/mL (≈ 2.49 µM) | EC50 [1]: 8.09 µg/mL | EC50 [2]: 5.07 µg/mL | EC50 [3]: 5.21 µg/mL | MIC [4]: 1 µg/mL (≈ 2.49 µM) | EC50 [5]: ≥ 32 µg/mL | EC50 [6]: 8.24 µg/mL (≈ 20.5 µM)
